For series [1], the system named is Staphylococcus aureus. Kind of series: Antibiofilm activity against methicillin resistant Staphylococcus aureus ATCC 43866 assessed as inhibition of biofilm formation incubated for 18 to 24 hrs by tissue culture plate method. It is filed as functional. As to conditions: time 18-24 hrs.
Series [2] deals with Staphylococcus aureus. In words: Potency index, ratio of vancomycin MIC to test compound MIC for antibacterial activity against methicillin resistant Staphylococcus aureus ATCC 43866 assessed as inhibition of biofilm formation incubated for 18 to 24 hrs by tissue culture plate method. The format is functional. The note with it: time 18-24 hrs.
Series [3] concerns Staphylococcus aureus. In words: Antibacterial activity against Staphylococcus aureus ATCC 29213 assessed as inhibition of bacterial growth by CLSI protocol based microdilution method. The format is functional.
For series [4], the system named is Staphylococcus aureus. Kind of series: Antibacterial activity against Staphylococcus aureus NRS119 assessed as inhibition of bacterial growth by CLSI protocol based microdilution method. It is filed as functional.
Series [5] deals with Staphylococcus aureus. In words: Antibacterial activity against vancomycin resistant Staphylococcus aureus 1 assessed as inhibition of bacterial growth by CLSI protocol based microdilution method. The format is functional. On the technique in general: Broth dilution looks for growth in wells or tubes with falling amounts of substance.
The test system of series [6] is Staphylococcus aureus. Kind of series: Antibacterial activity against Staphylococcus aureus ATCC 27660 assessed as inhibition of bacterial growth by CLSI protocol based microdilution method. It is filed as functional.
Series [7] relates to Staphylococcus aureus. In words: Antibacterial activity against Staphylococcus aureus NRS100 (COL) assessed as inhibition of bacterial growth by CLSI protocol based microdilution method. The format is functional.
The subject of series [8] is Staphylococcus aureus. Kind of series: Antibacterial activity against Staphylococcus aureus NRS120 assessed as inhibition of bacterial growth by CLSI protocol based microdilution method. It is filed as functional.
Series [9] can be described thus: Elimination half life in ICR mouse at 50 mg/kg, iv. It is filed as ADME, organism-based. The note with it: in vivo, read-out: beta t1/2 (converted).
The test system of series [10] is Staphylococcus aureus. Kind of series: Antibacterial activity against vancomycin resistant Staphylococcus aureus 2 assessed as inhibition of bacterial growth by CLSI protocol based microdilution method. It is filed as functional.
Series [11] in a line: Oral bioavailability in ICR mouse at 50 mg/kg. The format is ADME, organism-based. The note with it: in vivo.
Series [12] concerns Staphylococcus aureus. Kind of series: Antimicrobial activity against methicillin resistant Staphylococcus aureus C3787 assessed as inhibition of cell growth in the presence of oxacillin at 1/2 times of MIC by microdilution method. The format is functional.
Series [13] concerns Staphylococcus aureus. In words: Antimicrobial activity against methicillin resistant Staphylococcus aureus C5177 assessed as inhibition of cell growth in the presence of oxacillin at 1/8 times of MIC by microdilution method. The format is functional.
Series [14] concerns Staphylococcus aureus. Kind of series: Antimicrobial activity against methicillin resistant Staphylococcus aureus C5294 assessed as inhibition of cell growth in the presence of oxacillin at 1/4 times of MIC by microdilution method. The format is functional.
The subject of series [15] is Staphylococcus aureus. Kind of series: Antimicrobial activity against methicillin resistant Staphylococcus aureus C3212 assessed as inhibition of cell growth in the presence of oxacillin at 1/2 times of MIC by microdilution method. It is filed as functional.
The subject of series [16] is Staphylococcus aureus. Kind of series: Antimicrobial activity against methicillin resistant Staphylococcus aureus C5269 assessed as inhibition of cell growth in the presence of oxacillin at 1/4 times of MIC by microdilution method. It is filed as functional.
In series [17] the test system is Staphylococcus aureus. In words: Antimicrobial activity against methicillin resistant Staphylococcus aureus C3787 assessed as inhibition of cell growth in the presence of oxacillin at 1/4 times of MIC by microdilution method. It is filed as functional.
In series [18] the test system is Staphylococcus aureus. In words: Antimicrobial activity against methicillin resistant Staphylococcus aureus C4058 assessed as inhibition of cell growth in the presence of oxacillin at 1/2 times of MIC by microdilution method. It is filed as functional.
For series [19], the system named is Staphylococcus aureus. Kind of series: Antimicrobial activity against methicillin resistant Staphylococcus aureus C3212 assessed as inhibition of cell growth in the presence of oxacillin at 1/8 times of MIC by microdilution method. It is filed as functional.
In series [20] the test system is Staphylococcus aureus. In words: Antimicrobial activity against methicillin resistant Staphylococcus aureus C5269 assessed as inhibition of cell growth in the presence of oxacillin at 1/8 times of MIC by microdilution method. It is filed as functional.
In series [21] the test system is Staphylococcus aureus. In words: Antimicrobial activity against methicillin resistant Staphylococcus aureus C5177 assessed as inhibition of cell growth in the presence of oxacillin at 1/2 times of MIC by microdilution method. The format is functional.
The subject of series [22] is Staphylococcus aureus. Kind of series: Antimicrobial activity against methicillin resistant Staphylococcus aureus C4058 assessed as inhibition of cell growth in the presence of oxacillin at 1/8 times of MIC by microdilution method. The format is functional.
Series [23] concerns Staphylococcus aureus. Kind of series: Antimicrobial activity against methicillin resistant Staphylococcus aureus C5382 assessed as inhibition of cell growth in the presence of oxacillin at 1/4 times of MIC by microdilution method. It is filed as functional.
Series [24] relates to Staphylococcus aureus. In words: Antimicrobial activity against methicillin resistant Staphylococcus aureus K118 assessed as inhibition of cell growth in the presence of oxacillin at 1/8 times of MIC by microdilution method. The format is functional.
Series [25] relates to Staphylococcus aureus. In words: Antimicrobial activity against methicillin resistant Staphylococcus aureus C5171 assessed as inhibition of cell growth in the presence of oxacillin at 1/4 times of MIC by microdilution method. The format is functional.
Series [26] concerns Staphylococcus aureus. In words: Antimicrobial activity against methicillin resistant Staphylococcus aureus C5294 assessed as inhibition of cell growth in the presence of oxacillin at 1/8 times of MIC by microdilution method. The format is functional.
Series [27] concerns Staphylococcus aureus. In words: Antimicrobial activity against methicillin resistant Staphylococcus aureus C5171 assessed as inhibition of cell growth in the presence of oxacillin at 1/2 times of MIC by microdilution method. It is filed as functional.
Series [28] relates to Staphylococcus aureus. Kind of series: Antimicrobial activity against methicillin resistant Staphylococcus aureus C5282 assessed as inhibition of cell growth in the presence of oxacillin at 1/4 times of MIC by microdilution method. The format is functional.
Series [29] has as its system Staphylococcus aureus. In words: Antimicrobial activity against methicillin resistant Staphylococcus aureus C5294 assessed as inhibition of cell growth in the presence of oxacillin at 1/2 times of MIC by microdilution method. The format is functional.
For series [30], the system named is Staphylococcus aureus. In words: Antimicrobial activity against methicillin resistant Staphylococcus aureus C5282 assessed as inhibition of cell growth in the presence of oxacillin at 1/8 times of MIC by microdilution method. The format is functional.
Series [31] has as its system Staphylococcus aureus. Kind of series: Antimicrobial activity against methicillin resistant Staphylococcus aureus C3787 assessed as inhibition of cell growth in the presence of oxacillin at 1/8 times of MIC by microdilution method. It is filed as functional.
The subject of series [32] is Staphylococcus aureus. In words: Antimicrobial activity against methicillin resistant Staphylococcus aureus C5382 assessed as inhibition of cell growth in the presence of oxacillin at 1/2 times of MIC by microdilution method. The format is functional.
Series [33] relates to Staphylococcus aureus. Kind of series: Antimicrobial activity against methicillin resistant Staphylococcus aureus C3212 assessed as inhibition of cell growth in the presence of oxacillin at 1/4 times of MIC by microdilution method. It is filed as functional.
Series [34] deals with Staphylococcus aureus. In words: Antimicrobial activity against methicillin resistant Staphylococcus aureus K118 assessed as inhibition of cell growth in the presence of oxacillin at 1/4 times of MIC by microdilution method. It is filed as functional.
The subject of series [35] is Staphylococcus aureus. In words: Antimicrobial activity against methicillin resistant Staphylococcus aureus C5380 assessed as inhibition of cell growth in the presence of oxacillin at 1/4 times of MIC by microdilution method. The format is functional.
For series [36], the system named is Staphylococcus aureus. Kind of series: Antimicrobial activity against methicillin resistant Staphylococcus aureus C4058 assessed as inhibition of cell growth in the presence of oxacillin at 1/4 times of MIC by microdilution method. The format is functional.
Series [37] deals with Staphylococcus aureus. Kind of series: Antimicrobial activity against methicillin resistant Staphylococcus aureus C5380 assessed as inhibition of cell growth in the presence of oxacillin at 1/2 times of MIC by microdilution method. It is filed as functional.
Series [38] concerns Staphylococcus aureus. Kind of series: Antimicrobial activity against methicillin resistant Staphylococcus aureus C5380 assessed as inhibition of cell growth in the presence of oxacillin at 1/8 times of MIC by microdilution method. It is filed as functional.
For series [39], the system named is Staphylococcus aureus. Kind of series: Antimicrobial activity against methicillin resistant Staphylococcus aureus C5382 assessed as inhibition of cell growth in the presence of oxacillin at 1/8 times of MIC by microdilution method. It is filed as functional.
For series [40], the system named is Staphylococcus aureus. Kind of series: Antimicrobial activity against methicillin resistant Staphylococcus aureus C5177 assessed as inhibition of cell growth in the presence of oxacillin at 1/4 times of MIC by microdilution method. The format is functional.
Series [41] has as its system Staphylococcus aureus. Kind of series: Antimicrobial activity against methicillin resistant Staphylococcus aureus C5171 assessed as inhibition of cell growth in the presence of oxacillin at 1/8 times of MIC by microdilution method. It is filed as functional.

Molecules are shown by their SMILES. Values after ≈ are worked out from the molar mass of the structure shown. A value given as a limit tells only on which side of the number the result lay.

With `Cn1c(-c2nnc(-c3ccc(Cl)cc3Cl)o2)cc(Br)c1Br`, in the series on Staphylococcus aureus [1], the MIC was determined as 0.78 µg/mL (≈ 1.73 µM). Also, the Ratio in the series with Staphylococcus aureus [2] is 4.

The term bioavailability denotes the share of a dose that reaches the circulation, judged against a reference dose that is usually intravenous. A high value points to good availability. As to `Oc1ccc(-c2nc(-c3ccc(Oc4ccc(C(F)(F)F)cc4)cc3)no2)cc1`, the MIC in the series with Staphylococcus aureus [3], in the series on Staphylococcus aureus [4], in the series on Staphylococcus aureus [5], in the series with Staphylococcus aureus [6], in the series with Staphylococcus aureus [7] and with Staphylococcus aureus [8] was 2 µg/mL (≈ 5.02 µM) throughout. Moreover, the MIC in the series on Staphylococcus aureus [10] came out at 2 µg/mL (≈ 5.02 µM). For the same molecule, the half-life in [9] is 2400 min. In series [11], this molecule showed a bioavailability of 100%.

In the case of `FC(F)(F)c1ccc(Oc2ccc(-c3noc(-c4ccc5[nH]ccc5c4)n3)cc2)cc1`, the MIC in the series with Staphylococcus aureus [12] is ≤ 0.03 µg/mL; in the series with Staphylococcus aureus [13], < 0.03 µg/mL; with Staphylococcus aureus [14], ≤ 0.03 µg/mL; with Staphylococcus aureus [15] it was ≤ 0.03 µg/mL; in the series on Staphylococcus aureus [16], ≤ 0.03 µg/mL; with Staphylococcus aureus [17], ≤ 0.03 µg/mL. Besides, the MIC with Staphylococcus aureus [18], in the series with Staphylococcus aureus [19], with Staphylococcus aureus [20], in the series with Staphylococcus aureus [21], in the series on Staphylococcus aureus [22] and with Staphylococcus aureus [23] was ≤ 0.03 µg/mL in each case. Besides, the MIC in the series on Staphylococcus aureus [24], in the series with Staphylococcus aureus [25], in the series on Staphylococcus aureus [26], in the series on Staphylococcus aureus [27], in the series on Staphylococcus aureus [28] and with Staphylococcus aureus [29] was ≤ 0.03 µg/mL each time. Further, the MIC with Staphylococcus aureus [30], in the series with Staphylococcus aureus [31], in the series on Staphylococcus aureus [32], in the series with Staphylococcus aureus [33], in the series on Staphylococcus aureus [34] and with Staphylococcus aureus [35] was ≤ 0.03 µg/mL in each case. Further, the MIC in the series on Staphylococcus aureus [36], in the series with Staphylococcus aureus [37], in the series with Staphylococcus aureus [38], with Staphylococcus aureus [39], in the series on Staphylococcus aureus [40] and in the series with Staphylococcus aureus [41] was ≤ 0.03 µg/mL in each case.

The record behind these values is ChEMBL document CHEMBL5241069, “A key review on oxadiazole analogs as potential methicillin-resistant Staphylococcus aureus (MRSA) activity: Structure-activity relationship studies” (Eur J Med Chem, 2021).
